Reference: paper PMC9841589, “Identification of 2-Aminoacyl-1,3,4-thiadiazoles as Prostaglandin E2 and Leukotriene Biosynthesis Inhibitors” (ACS Medicinal Chemistry Letters, 2022)

What was measured:
Human recombinant 5-LO = target: T1, Human recombinant 5-LO (Homo sapiens, UniProt P09917); assay: Cell-free 5-LO activity assay; format: biochemical; conditions: percentage of uninhibited control (100%), n = 3; n.i.: no inhibitory activity observed
T1 construct: made in house; host or cells: E. coli BL21 transformed with pT3-5-LO plasmid
T1 sequence (P09917 1-674): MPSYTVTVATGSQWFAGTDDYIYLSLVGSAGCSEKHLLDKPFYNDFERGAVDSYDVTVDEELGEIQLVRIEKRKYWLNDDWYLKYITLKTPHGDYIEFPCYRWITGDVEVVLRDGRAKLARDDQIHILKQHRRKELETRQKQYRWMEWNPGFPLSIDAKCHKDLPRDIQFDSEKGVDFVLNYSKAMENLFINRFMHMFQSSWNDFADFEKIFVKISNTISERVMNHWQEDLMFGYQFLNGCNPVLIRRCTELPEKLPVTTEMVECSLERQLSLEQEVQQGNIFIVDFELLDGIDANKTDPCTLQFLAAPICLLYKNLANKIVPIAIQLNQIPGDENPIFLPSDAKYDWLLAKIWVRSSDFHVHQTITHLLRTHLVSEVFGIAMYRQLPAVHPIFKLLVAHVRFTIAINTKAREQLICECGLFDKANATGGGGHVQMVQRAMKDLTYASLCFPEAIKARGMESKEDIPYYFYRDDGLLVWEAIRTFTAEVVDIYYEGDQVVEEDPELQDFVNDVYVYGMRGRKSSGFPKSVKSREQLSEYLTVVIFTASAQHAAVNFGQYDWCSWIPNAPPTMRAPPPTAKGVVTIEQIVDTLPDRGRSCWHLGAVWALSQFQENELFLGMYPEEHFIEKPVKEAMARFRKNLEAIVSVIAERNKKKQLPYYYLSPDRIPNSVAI
Experimental: mM glutathione, and 250 mM sucrose) and the protein concentration was defined. Potassium phosphate buffer (0.1 M, pH = 7.4) plus glutathione (2.5 mM) was added to dilute microsomes, which were then seeded in a 96-well plate. Test compounds 1-9 (10 µM) or DMSO (1%) were added and preincubated for 15 min on ice. MK886 (10 µM) and MD-52 (1 µM) were used as reference drugs.
The reactions started by adding 20 µM of PGH2, and 1 min later, 100 µl of a solution containing FeCl3 (40 mM), citric acid (80 mM), and 11β-PGE 2 (10 µM) were added for stopping the conversion of PGH2. After the extraction of PGE2 and 11β-PGE 2 (internal stardard) by solid-phase extraction, the quantity of product formation (PGE2) was determined by RP-HPLC.114
Cell-free 5-LO activity assay
Human recombinant 5-LO was expressed in E.coli BL21 transformed with pT3-5-LO plasmid at 30 °C overnight 15.2 A lysis buffer (50 mM triethanolamine, pH = 8.0, 5 mM EDTA, 1 mM phenylmethanesulfonyl fluoride, 60 µg/mL soybean trypsin inhibitor, 2 mM dithiothreitol and lysozyme) was added. […] Finally, a solid-phase extraction then was performed using C18 RP-columns (100 mg, UCT, Bristol, PA, USA) and RP-HPLC was used to quantify 5-LOX products.3 16 The 5-LO inhibitor zileuton (3 µM) was used as positive control. […]

[1] = test system: zymosan-induced peritonitis; assay: Zymosan-induced peritonitis in mice; format: in vivo, mouse
Experimental: Figure 5 Effect of compound 3 in zymosan-induced peritonitis in mice. Mice were randomly divided into different experimental groups: control group (Ctrl), model group (zymosan + vehicle compound 3), zymosan + compound 3 (i.p. injection 30 min after i.p. injection of zymosan) group, and zymosan + dexamethasone (i.p. injection 30 min after i.p. injection of zymosan) group. At (A) 4 and (B) 24 h after injection, peritoneal exudate from each mouse was recovered, and the total cell number was evaluated. Results are expressed as mean ± SD. For statistical analysis see SI.
Figure 6 Analysis of cytokine levels collected in the peritoneal exudate of mice from different experimental groups: (A, B) IL-1β, (C, D) IL-6, (E, F) PGE2, and (G, H) IL-10. Results (normalized to exudate levels) are expressed as mean ± SD. For statistical analysis see SI.
Induction of peritonitis in mice and Enzyme-Linked Immunosorbent Assay (ELISA)
To examine the anti-inflammatory action of compound 3, we next evaluated the biological activity of
compound 3 in a mouse model of zymosan-induced peritonitis, as as previously described. 13,14 26, 27
To this aim, mice were randomly divided into different experimental groups: control group (Ctrl),
model group (zymosan + vehicle compound 3), zymosan + compound 3 (0.1, 1, and 10 mg/kg), and
zymosan + dexamethasone (3 mg/kg) group. Animals received the selected compound or
dexamethasone intraperitoneally (i.p.) 30 min after i.p. injection of zymosan (500 mg/kg)26, 27. Ctrl
and model groups received an equal volume of vehicle (PBS or DMSO/saline 1:3, respectively).
Peritoneal exudates were collected at selected time points (4 and 24 h) by washing the cavity with 2
mL of PBS. Then cell number of lavage fluids was determined by TC10 automated cell counter (Bio-
Rad, Milan, Italy) using disposable slides. The remaining lavage fluids were centrifuged at 3000 rpm
for 20 min at 4 °C, and supernatants were frozen at −80 °C for further ELISA analysis according to
the manufacturer instructions (eBioscience Co., San Diego, CA, USA)10 23 of IL-1β, IL-6, PGE 2 and
IL-10 following the procedure previously described15-17 28-30. Dexamethasone and zymosan A were
purchased from Sigma-Aldrich (Milan, Italy). DMSO was purchased from Merck (Italy). Unless
otherwise stated, all the other reagents were purchased from Carlo Erba (Milan, Italy).
The data and statistical analysis in this study comply with the international recommendations on
experimental design and analysis in preclinical pharmacology18-2031-33. The results obtained were
expressed as the mean ± S.D. or as mean ± S.E.M., as reported in detail in the figure legends. IC 50
values were calculated by nonlinear regression using GraphPad Prism Version 8.0 software (San
Diego, CA) one site binding competition. Statistical evaluation of the data was performed by one-

[2] = 10 mg/kg i.p., 4 h (P ≤ 0.05) and 24 h (P ≤ 0.01)

SMILES	5-LO residual activity (%) (Human recombinant 5-LO)	leucocyte recruitment (total cell number in peritoneal exudate) ([1]; 1 mg/kg i.p., 4 and 24 h, P ≤ 0.05)	leucocyte recruitment (total cell number in peritoneal exudate) ([1]; 10 mg/kg i.p. 30 min after zymosan, 4 h, P ≤ 0.05)	leucocyte recruitment (total cell number in peritoneal exudate) ([1]; 10 mg/kg i.p. 30 min after zymosan, 24 h, P ≤ 0.01)	IL-10 level in peritoneal exudate ([1]; 10 mg/kg i.p., 4 and 24 h)	PGE2 level in peritoneal exudate ([1]; 10 mg/kg i.p., 4 and 24 h (P ≤ 0.01))	IL-1β level in peritoneal exudate [1, 2]	IL-6 level in peritoneal exudate [1, 2]
O=C(Nc1nnc(-c2ccc(-c3cccc(O)c3)cc2)s1)c1ccccc1Br [compound 3]	n.i. (125) %	remarkable effect	reduced	reduced	modulated only at 24 h	significantly reduced	significantly reduced	significantly reduced
Nc1ccccc1-c1ccc(-c2nnc(NC(=O)c3c(Cl)ccnc3Cl)s2)cc1 [compound 9]	n.i. (75.9) %							
